Converted amounts (≈) assume the structure as drawn. The source made the active and inactive calls. The rule behind the calls is not given here.
Assays:
[1] = test system: Mus musculus; assay: Antidiabetic activity in diet-induced obese mouse assessed as change in body weight at 30 mg/kg, po for 4 weeks measured after 4 weeks (reference value: 29.6+/-0.9 g); type: functional
[2] = target: T1, Bile acid receptor (Homo sapiens) (UniProt Q96RI1); assay: Agonist activity at human FXR LBD assessed as SRC1 peptide recruitment by FRET assay relative to GW 4064; type: functional
T1 sequence (whole entry): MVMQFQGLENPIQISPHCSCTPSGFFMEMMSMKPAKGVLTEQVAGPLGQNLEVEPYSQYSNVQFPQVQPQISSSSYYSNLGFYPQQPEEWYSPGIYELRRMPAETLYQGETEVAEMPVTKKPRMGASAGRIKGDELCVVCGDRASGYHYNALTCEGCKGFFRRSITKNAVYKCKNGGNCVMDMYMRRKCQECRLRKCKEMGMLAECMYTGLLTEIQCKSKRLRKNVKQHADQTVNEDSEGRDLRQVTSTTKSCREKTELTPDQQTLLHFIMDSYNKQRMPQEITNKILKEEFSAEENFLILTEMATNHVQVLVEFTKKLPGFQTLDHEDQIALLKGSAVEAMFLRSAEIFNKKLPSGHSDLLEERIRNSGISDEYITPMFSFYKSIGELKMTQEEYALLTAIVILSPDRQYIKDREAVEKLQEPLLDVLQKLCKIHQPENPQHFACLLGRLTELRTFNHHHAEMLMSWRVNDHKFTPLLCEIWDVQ

[3] = Volume of distribution at steady state in iv dosed cynomolgus monkey; type: ADME, organism-based, Macaca fascicularis; conditions: in vivo, read-out: Vdss
[4] = test system: Mus musculus; assay: Antidiabetic activity in diet-induced obese mouse assessed as change in body weight at 30 mg/kg, po for 4 weeks measured after 1 week (reference value: 29.6+/-0.9 g); type: functional
[5] = Oral bioavailability in mouse; type: ADME, organism-based; conditions: in vivo
[6] = test system: Cynomolgus monkey; assay: Dose normalized AUC in orally dosed cynomolgus monkey; type: ADME, organism-based, Macaca fascicularis; conditions: in vivo, po
[7] = test system: Mus musculus; assay: Antidiabetic activity in diet-induced obese mouse assessed as change in body weight at 30 mg/kg, po for 4 weeks measured after 2 weeks (reference value: 29.6+/-0.9 g); type: functional
[8] = test system: Mus musculus; assay: Antidiabetic activity in diet-induced obese mouse assessed as total cholesterol level at 100 mg/kg, po for 4 weeks (reference value: 140.0 +/-2.8 mg/dL); type: functional
[9] = Half life in iv dosed mouse; type: ADME, organism-based; conditions: in vivo
[10] = species on record: Homo sapiens; assay: Selectivity ratio of EC50 for human FXR to EC50 for human LXRalpha
[11] = test system: Mus musculus; assay: Antidiabetic activity in diet-induced obese mouse assessed as change in body weight at 10 mg/kg, po for 4 weeks measured after 3 weeks (reference value: 30.3+/-0.8 g); type: functional
[12] = test system: Mus musculus; assay: Antidiabetic activity in diet-induced obese mouse assessed as change in body weight at 10 mg/kg, po for 4 weeks measured after 1 week (reference value: 30.3+/-0.8 g); type: functional
[13] = test system: Mus musculus; assay: Antidiabetic activity in diet-induced obese mouse assessed as serum insulin level at 100 mg/kg, po for 4 weeks (reference value: […]); type: functional
[14] = Oral bioavailability in rat; type: ADME, organism-based; conditions: in vivo
[15] = Half life in iv dosed Beagle dog; type: ADME, organism-based, Canis lupus familiaris; conditions: in vivo
[16] = target: T1, Bile acid receptor (Homo sapiens); assay: Agonist activity at human FXR LBD iexpressed in monkey CV-1 cells assessed as transactivation of luciferase reporter gene expression relative to GW 4064; type: functional, cell-based; parameters: concentration or dose not given beside the values
[17] = test system: Mus musculus; assay: Antidiabetic activity in diet-induced obese mouse assessed as change in body weight at 30 mg/kg, po for 4 weeks measured after 3 weeks (reference value: 29.6+/-0.9 g); type: functional
[18] = test system: Mus musculus; assay: Antidiabetic activity in diet-induced obese mouse assessed as change in body weight at 10 mg/kg, po for 4 weeks measured after 4 weeks (reference value: 30.3+/-0.8 g); type: functional
[19] = test system: Mus musculus; assay: Antidiabetic activity in diet-induced obese mouse assessed as NEFA level at 10 mg/kg, po for 4 weeks (reference value: 0.46 +/-0.02 mEq/dL); type: functional
[20] = species on record: Homo sapiens; assay: Selectivity ratio of EC50 for human FXR to EC50 for human RORalpha
[21] = test system: Mus musculus; assay: Antidiabetic activity in diet-induced obese mouse assessed as serum glucose level at 30 mg/kg, po for 4 weeks (reference value: 316.5 +/-13.2 mg/dL); type: functional
[22] = target: Cytochrome P450 2D6 (Homo sapiens, UniProt P10635); assay: Inhibition of CYP2D6 in human liver microsome; type: microsomes
Chain of Cytochrome P450 2D6 (P10635 whole entry): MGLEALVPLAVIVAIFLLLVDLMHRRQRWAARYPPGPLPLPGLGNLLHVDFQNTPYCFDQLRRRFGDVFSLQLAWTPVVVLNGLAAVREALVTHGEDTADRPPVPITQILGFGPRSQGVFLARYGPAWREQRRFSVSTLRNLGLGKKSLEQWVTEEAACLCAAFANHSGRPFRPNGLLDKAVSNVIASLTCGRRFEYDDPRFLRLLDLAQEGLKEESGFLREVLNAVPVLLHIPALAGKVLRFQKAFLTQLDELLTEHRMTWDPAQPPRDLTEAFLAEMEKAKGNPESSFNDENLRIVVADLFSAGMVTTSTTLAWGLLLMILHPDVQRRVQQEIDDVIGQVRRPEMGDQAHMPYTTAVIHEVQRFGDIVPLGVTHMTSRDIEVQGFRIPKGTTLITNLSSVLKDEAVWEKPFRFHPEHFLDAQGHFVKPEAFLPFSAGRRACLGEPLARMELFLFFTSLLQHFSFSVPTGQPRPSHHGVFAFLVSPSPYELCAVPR

[23] = test system: Mus musculus; assay: Antidiabetic activity in diet-induced obese mouse assessed as triglyceride level at 100 mg/kg, po for 4 weeks (reference value: 54.4 +/-1.5 mg/dL); type: functional
[24] = species on record: Homo sapiens; assay: Selectivity ratio of EC50 for human FXR to EC50 for human RXRalpha
[25] = test system: Mus musculus; assay: Antidiabetic activity in diet-induced obese mouse assessed as beta-hydroxybutyrate level at 100 mg/kg, po for 4 weeks (reference value: 1.7 +/-0.1 mg/dL); type: functional
[26] = Oral bioavailability in cynomolgus monkey; type: ADME, organism-based, Macaca fascicularis; conditions: in vivo
[27] = test system: Mus musculus; assay: Antidiabetic activity in diet-induced obese mouse assessed as NEFA level at 100 mg/kg, po for 4 weeks (reference value: 0.46 +/-0.02 mEq/dL); type: functional
[28] = Permeability across MDCK cell membrane; type: ADME, cell-based, Canis lupus familiaris; conditions: dog
[29] = test system: Mus musculus; assay: Antidiabetic activity in diet-induced obese mouse assessed as change in body weight at 100 mg/kg, po for 4 weeks measured after 4 weeks (reference value: 29.1+/-0.8 g); type: functional
[30] = test system: Mus musculus; assay: Antidiabetic activity in diet-induced obese mouse assessed as change in body weight at 10 mg/kg, po for 4 weeks measured after 2 weeks (reference value: 30.3+/-0.8 g); type: functional
[31] = target: Cytochrome P450 2C19 (Homo sapiens, UniProt P33261); assay: Inhibition of CYP2C19 in human liver microsome; type: microsomes
Chain of Cytochrome P450 2C19 (P33261 whole entry): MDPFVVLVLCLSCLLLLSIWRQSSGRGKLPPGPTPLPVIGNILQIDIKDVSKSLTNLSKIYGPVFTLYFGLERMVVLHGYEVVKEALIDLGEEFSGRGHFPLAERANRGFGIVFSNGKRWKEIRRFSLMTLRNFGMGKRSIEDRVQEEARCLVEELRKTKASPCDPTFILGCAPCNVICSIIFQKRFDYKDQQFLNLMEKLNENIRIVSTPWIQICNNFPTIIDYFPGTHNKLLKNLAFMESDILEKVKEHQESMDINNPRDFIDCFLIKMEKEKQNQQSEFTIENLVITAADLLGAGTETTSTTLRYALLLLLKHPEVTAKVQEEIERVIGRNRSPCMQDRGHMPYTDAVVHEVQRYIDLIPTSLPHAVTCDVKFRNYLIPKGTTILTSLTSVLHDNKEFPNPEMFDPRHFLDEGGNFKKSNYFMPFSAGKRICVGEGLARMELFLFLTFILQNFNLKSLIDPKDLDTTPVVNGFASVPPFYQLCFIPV

[32] = Clearance in iv dosed mouse; type: ADME, organism-based; conditions: in vivo
[33] = Oral bioavailability in Beagle dog; type: ADME, organism-based, Canis lupus familiaris; conditions: in vivo
[34] = Solubility of compound in fasted state-simulated intestinal fluid at pH 6.5; type: physicochemical; conditions: simulated gi fluid
[35] = target: T1, Bile acid receptor (Homo sapiens); assay: Binding affinity to human FXR by X-ray crystallography
[36] = target: T2, Bile acid receptor (Homo sapiens, UniProt Q96RI1); assay: Agonist activity at human FXR LBD iexpressed in monkey CV-1 cells assessed as transactivation of luciferase reporter gene expression; type: functional, cell-based
T2 sequence (Q96RI1 whole entry): T1 sequence (whole entry)

[37] = test system: Canis familiaris; assay: Dose normalized AUC in orally dosed Beagle dog; type: ADME, organism-based, Canis lupus familiaris; conditions: in vivo, po
[38] = test system: Rattus norvegicus; assay: Dose normalized AUC in orally dosed rat; type: ADME, organism-based; conditions: in vivo, po
[39] = test system: Mus musculus; assay: Antidiabetic activity in diet-induced obese mouse assessed as triglyceride level at 30 mg/kg, po for 4 weeks (reference value: 54.4 +/-1.5 mg/dL); type: functional
[40] = test system: Mus musculus; assay: Antidiabetic activity in diet-induced obese mouse assessed as beta-hydroxybutyrate level at 10 mg/kg, po for 4 weeks (reference value: 1.7 +/-0.1 mg/dL); type: functional
[41] = species on record: Homo sapiens; assay: Selectivity ratio of EC50 for human FXR to EC50 for human PXR
[42] = target: Cytochrome P450 2C9 (Homo sapiens, UniProt P11712); assay: Inhibition of CYP2C9 in human liver microsome; type: microsomes
Chain of Cytochrome P450 2C9 (P11712 whole entry): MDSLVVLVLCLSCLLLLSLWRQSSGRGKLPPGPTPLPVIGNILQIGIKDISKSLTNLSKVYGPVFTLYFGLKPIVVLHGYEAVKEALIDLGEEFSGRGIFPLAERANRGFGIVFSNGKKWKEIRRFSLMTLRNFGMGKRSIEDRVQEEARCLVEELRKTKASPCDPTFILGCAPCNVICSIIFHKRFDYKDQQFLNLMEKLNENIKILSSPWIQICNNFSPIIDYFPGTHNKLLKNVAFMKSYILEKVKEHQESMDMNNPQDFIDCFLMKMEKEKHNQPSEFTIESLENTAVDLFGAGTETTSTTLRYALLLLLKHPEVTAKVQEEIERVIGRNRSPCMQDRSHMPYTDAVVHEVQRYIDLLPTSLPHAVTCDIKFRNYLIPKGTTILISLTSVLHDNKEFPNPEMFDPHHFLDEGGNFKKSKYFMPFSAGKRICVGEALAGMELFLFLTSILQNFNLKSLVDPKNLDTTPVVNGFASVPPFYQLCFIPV

For `CC(C)c1onc(-c2c(Cl)cccc2Cl)c1COc1ccc(-c2ccc3nc(C(=O)O)ccc3c2)cc1`, the Activity [1] was 27.3 g, the Activity [2] was 105% and the Vd [3] was 0.15 L/kg. It also gave an Activity [4] of 28.4 g, a bioavailability [5] of 42% and an AUC [6] of 850 ng·kg·h/mg/mL. For the same compound, the Activity [7] was 27.8 g, the Activity [8] was 87.9 mg/dL and the half-life [9] was 1.4 h. For the same compound, the Ratio EC50 [10] was 100, the Activity [11] was 29 g and the Activity [12] was 29.4 g. For the same compound, the Activity [13] was 0.34 ng/mL, the bioavailability [14] was 23% and the half-life [15] was 1.83 h. The Activity [16] was 102%, the Activity [17] was 27.5 g and the Activity [18] was 29 g. The Activity [19] was 0.53 mEq/dL, the Ratio EC50 [20] was 100 and the Activity [21] was 282.2 mg/dL. It also gave an IC50 [22] greater than 33 µM, an Activity [23] of 47.4 mg/dL and a Ratio EC50 [24] of 100. The Activity [25] was 3.3 mg/dL, the bioavailability [26] was 15% and the Activity [27] was 0.65 mEq/dL. For the same compound, the Papp [28] was 18.3 ×10⁻⁶ cm/s, the Activity [29] was 25.6 g and the Activity [30] was 29.3 g. The IC50 [31] was greater than 33 µM, the clearance [32] was 23 mL/min/kg and the bioavailability [33] was 23%. For the same compound, the solubility [34] was 1 ng/mL (≈ 1.87 nM), the Activity [35] was “Active” and the EC50 [36] was 0.05 µM. It also gave an AUC [37] of 1260 ng·kg·h/mg/mL, an AUC [38] of 130 ng·kg·h/mg/mL and an Activity [39] of 51.1 mg/dL. The Activity [40] was 1.7 mg/dL, the Ratio EC50 [41] was 100 and the IC50 [42] was 4.4 µM.

From ChEMBL document CHEMBL1671792, “Conformationally constrained farnesoid X receptor (FXR) agonists: heteroaryl replacements of the naphthalene” (Bioorg Med Chem Lett, 2011)
